Laboratory results: patent US9023789B2, “Amylin analogs and pharmaceutical compositions thereof” (Novo Nordisk A/S, priority 2012, dated 2015)
Numbered stars: 1 amine (or outer) side, 2 acyl side, 3 side chain; on linkers, the order of the positions; unused ones are H or OH. Bridge positions count the residues as written; N and C are the ends. Side chains are listed from the residue outwards. Peptide text beside a SMILES is read from it. * marks the point of attachment. C20 diacid = O=C(O)CCCCCCCCCCCCCCCCCCC(=O)*; γGlu = O=C(O)[C@H](CCC(=O)[*:2])N[*:1]; AEEA = NCCOCCOCC(=O)O

What was measured:
[1] = molecular target: T1, human amylin receptor (membranes from Amylin 3(a)/CRE-luc cells) (Homo sapiens, UniProt O60896+P30988); experiment: ASSAY (V) binding to the human amylin receptor (SPA, 125I-rat amylin); details: for IC50: Table 4, read-out: hAmylin-R bind IC50;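 for all read-outs here: competition binding of cell membranes (35 ng/µL) mixed with SPA beads in 384-well plates at 40 µL total volume, read by scintillation counting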
T1 construct: expressed in transfected cells
T1 sequence (P30988 25-474): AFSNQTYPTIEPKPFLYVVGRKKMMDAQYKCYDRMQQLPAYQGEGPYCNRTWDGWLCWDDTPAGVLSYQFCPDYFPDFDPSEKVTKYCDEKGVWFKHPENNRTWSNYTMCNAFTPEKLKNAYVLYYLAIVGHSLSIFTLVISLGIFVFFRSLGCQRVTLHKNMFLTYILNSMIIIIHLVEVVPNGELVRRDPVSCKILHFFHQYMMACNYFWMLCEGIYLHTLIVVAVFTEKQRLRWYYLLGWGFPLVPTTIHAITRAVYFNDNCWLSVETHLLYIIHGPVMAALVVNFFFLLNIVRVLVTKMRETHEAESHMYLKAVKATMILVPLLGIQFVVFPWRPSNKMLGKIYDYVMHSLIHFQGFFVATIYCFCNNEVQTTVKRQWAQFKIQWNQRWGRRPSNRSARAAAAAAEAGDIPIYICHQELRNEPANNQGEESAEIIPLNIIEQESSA
T1 sequence (O60896 24-148 partner): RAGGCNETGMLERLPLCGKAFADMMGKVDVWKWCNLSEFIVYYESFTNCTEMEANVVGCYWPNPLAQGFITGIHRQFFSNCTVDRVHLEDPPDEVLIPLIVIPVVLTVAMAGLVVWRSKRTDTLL

[2] = ASSAY (III) ThT fibrillation assay for physical stability; type: physicochemical
Summary of the method: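 Formulations with 1 μM ThT, pH adjusted as required, incubated at 37 °C with 960 rpm orbital shaking; fluorescence (ex 444/em 485 nm) read every 20 min. Fibrillation reported as mean ThT fluorescence ± SD of 4–8 replicates at time points; polypeptide concentration measured by reverse-phase HPLC before and after, post-centrifugation.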

[3] = molecular target: T2, human amylin 3(a) receptor (human calcitonin receptor + RAMP-3) in BHK570 cells (Homo sapiens, UniProt O60896+P30988); experiment: ASSAY (II)a functional assay, human amylin receptor (CRE luciferase); type: cell-based; details: for EC50: human amylin receptor functional potency, assay (II), read-out: hAmylin-R funct. EC50
T2 construct: expressed in transfected cells
Summary of the method: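 Cells were seeded and cultured overnight, then incubated with standard or sample for 3 h at 37° C in serum-containing medium at pH 7.4. The medium was then swapped for PBS, LucLite was added for 30 min at room temperature, and luminescence was recorded. Cells were BHK with CRE-luc and calcitonin receptor, ± RAMP-3.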

[4] = Table 5, selectivity, hCTR bind IC50 / hAmylin-R bind IC50
[5] = Table 7, human binding selectivity, included for comparison
[6] = Table 7a (preferred compounds), human binding selectivity, included for comparison
[7] = hCTR funct. EC50 divided by hAmylin-R funct. EC50
[8] = hCTR funct. EC50 over hAmylin-R funct. EC50
[9] = human functional selectivity: hCTR funct. EC50 / hAmylin-R funct. EC50
[10] = Table 5a, selectivity, hCTR bind IC50 / hAmylin-R bind IC50
[11] = Table 5b, selectivity, hCTR bind IC50 / hAmylin-R bind IC50
[12] = Table 5c, selectivity, hCTR bind IC50 / hAmylin-R bind IC50
[13] = ratio of human calcitonin receptor binding IC50 to human amylin receptor binding IC50

Row | IC50 [1] | Ratio hCT/hAmylin binding [1, 4] | Ratio hCT/hAmylin binding [1, 5] | Ratio hCT/hAmylin binding [1, 6] | ThT pH 4.0 lag time (h) [2] | Ratio hCT/hAmylin funct. ([3]; hCTR funct. EC50 / hAmylin-R funct. EC50) | Ratio hCT/hAmylin funct. [3, 7] | Ratio hCT/hAmylin funct. [3, 8] | EC50 [3] | Ratio hCT/hAmylin funct. [3, 9] | Ratio hCT/hAmylin binding [1, 10] | Ratio hCT/hAmylin binding [1, 11] | Ratio hCT/hAmylin binding [1, 12] | Ratio hCT/hAmylin binding [1, 13] | Structure (SMILES)
1 | 0.97 nM | 2.3 | 2.3 | 2.3 | 15 h | 4.0 | 4.0 | 4.0 | 0.092 nM | 4.0 |  |  |  |  | CC[C@H](C)[C@H](NC(=O)[C@H](C)NC(=O)CNC(=O)[C@H](Cc1ccccc1)NC(=O)[C@H](CC(N)=O)NC(=O)[C@@H]1CCCN1C(=O)[C@H](CO)NC(=O)[C@H](CO)NC(=O)[C@H](Cc1c[nH]cn1)NC(=O)[C@H](CCCNC(=N)N)NC(=O)[C@H](CC(C)C)NC(=O)[C@H](Cc1ccccc1)NC(=O)[C@H](CCC(=O)O)NC(=O)[C@H](C)NC(=O)[C@H](CC(C)C)NC(=O)[C@H](CCCNC(=N)N)NC(=O)[C@H](CCC(N)=O)NC(=O)[C@@H](NC(=O)[C@H](C)NC(=O)[C@@H]1CSSC[C@H](NC(=O)[C@H](CCCCN)NC(=O)CC[C@H](NC(=O)CCCCCCCCCCCCCCCCCCC(=O)O)C(=O)O)C(=O)N[C@@H](CC(N)=O)C(=O)N[C@@H]([C@@H](C)O)C(=O)N[C@@H](C)C(=O)N[C@@H]([C@@H](C)O)C(=O)N1)[C@@H](C)O)C(=O)N1CCC[C@H]1C(=O)N[C@@H](CO)C(=O)N1CCC[C@H]1C(=O)N[C@H](C(=O)N[C@@H](CC(N)=O)C(=O)N[C@H](C(=O)NCC(=O)N[C@@H](CO)C(=O)N[C@@H](CC(N)=O)C(=O)N[C@H](C(=O)N[C@@H](Cc1ccc(O)cc1)C(N)=O)[C@@H](C)O)C(C)C)[C@@H](C)O [Example 37] ({C20 diacid-γGlu}-KCNTATCATQRLAEFLRHSSPNFGAIPSPTNVGSNTY-NH2; disulfide 2-7 (inferred))
2 | 0.665 nM | 29.0 | 29.0 | 29.0 | 45 h |  | 11.6 | 11.6 | 0.217 nM | 11.6 | 29.0 | 29.0 | 29.0 | 29.0 | CC[C@H](C)[C@H](NC(=O)[C@H](C)NC(=O)CNC(=O)[C@H](Cc1ccccc1)NC(=O)[C@H](CC(N)=O)NC(=O)[C@@H]1CCCN1C(=O)[C@H](CO)NC(=O)[C@H](CO)NC(=O)[C@H](Cc1c[nH]cn1)NC(=O)[C@H](CCCNC(=N)N)NC(=O)[C@H](CC(C)C)NC(=O)[C@H](Cc1ccccc1)NC(=O)[C@H](CC(N)=O)NC(=O)[C@H](C)NC(=O)[C@H](CC(C)C)NC(=O)[C@H](CCCNC(=N)N)NC(=O)[C@H](CCC(N)=O)NC(=O)[C@@H](NC(=O)[C@H](C)NC(=O)[C@@H]1CSSC[C@H](NC(=O)[C@H](CCCCN)NC(=O)CC[C@H](NC(=O)CCCCCCCCCCCCCCCCCCC(=O)O)C(=O)O)C(=O)N[C@@H](CC(N)=O)C(=O)N[C@@H]([C@@H](C)O)C(=O)N[C@@H](C)C(=O)N[C@@H]([C@@H](C)O)C(=O)N1)[C@@H](C)O)C(=O)N1CCC[C@H]1C(=O)N[C@@H](CO)C(=O)N[C@@H](CO)C(=O)N[C@H](C(=O)N[C@@H](CC(N)=O)C(=O)N[C@H](C(=O)NCC(=O)N[C@@H](CCCNC(=N)N)C(=O)N[C@@H](CC(N)=O)C(=O)N[C@H](C(=O)N[C@@H](Cc1ccc(O)cc1)C(N)=O)[C@@H](C)O)C(C)C)[C@@H](C)O [Example 39] ({C20 diacid-γGlu}-KCNTATCATQRLANFLRHSSPNFGAIPSSTNVGRNTY-NH2; disulfide 2-7)
3 |  | 31.1 | 31.1 | 31.1 | 26 h |  | 16.4 | 16.4 |  | 16.4 | 31.1 | 31.1 | 31.1 | 31.1 | CC[C@H](C)[C@H](NC(=O)[C@H](C)NC(=O)CNC(=O)[C@H](Cc1ccccc1)NC(=O)[C@H](CC(N)=O)NC(=O)[C@@H]1CCCN1C(=O)[C@H](CO)NC(=O)[C@H](CO)NC(=O)[C@H](Cc1c[nH]cn1)NC(=O)[C@H](CCCNC(=N)N)NC(=O)[C@H](CC(C)C)NC(=O)[C@H](Cc1ccccc1)NC(=O)[C@H](CC(N)=O)NC(=O)[C@H](C)NC(=O)[C@H](CC(C)C)NC(=O)[C@H](CCCNC(=N)N)NC(=O)[C@H](CCC(N)=O)NC(=O)[C@@H](NC(=O)[C@H](C)NC(=O)[C@@H]1CSSC[C@H](NC(=O)[C@H](CCCCN)NC(=O)CC[C@H](NC(=O)CCCCCCCCCCCCCCCCCCC(=O)O)C(=O)O)C(=O)N[C@@H](CC(N)=O)C(=O)N[C@@H]([C@@H](C)O)C(=O)N[C@@H](C)C(=O)N[C@@H]([C@@H](C)O)C(=O)N1)[C@@H](C)O)C(=O)N1CCC[C@H]1C(=O)N[C@@H](CO)C(=O)N[C@@H](CO)C(=O)N[C@H](C(=O)N[C@@H](CC(N)=O)C(=O)N[C@H](C(=O)NCC(=O)N[C@@H](Cc1c[nH]cn1)C(=O)N[C@@H](CC(N)=O)C(=O)N[C@H](C(=O)N[C@@H](Cc1ccc(O)cc1)C(N)=O)[C@@H](C)O)C(C)C)[C@@H](C)O [Example 40]
4 |  | 26.8 | 26.8 | 26.8 | 45 h |  | 17.0 | 17.0 |  | 17.0 | 26.8 | 26.8 | 26.8 | 26.8 | CC[C@H](C)[C@H](NC(=O)[C@H](C)NC(=O)CNC(=O)[C@H](Cc1ccccc1)NC(=O)[C@H](CC(N)=O)NC(=O)[C@@H]1CCCN1C(=O)[C@H](CO)NC(=O)[C@H](CO)NC(=O)[C@H](Cc1c[nH]cn1)NC(=O)[C@H](CCCNC(=N)N)NC(=O)[C@H](CC(C)C)NC(=O)[C@H](Cc1ccccc1)NC(=O)[C@H](CC(N)=O)NC(=O)[C@H](C)NC(=O)[C@H](CC(C)C)NC(=O)[C@H](CCCNC(=N)N)NC(=O)[C@H](CCC(N)=O)NC(=O)[C@@H](NC(=O)[C@H](C)NC(=O)[C@@H]1CSSC[C@H](NC(=O)[C@H](CCCNC(=N)N)NC(=O)[C@@H](N)CCCCNC(=O)COCCOCCNC(=O)CC[C@H](NC(=O)CCCCCCCCCCCCCCCCCCC(=O)O)C(=O)O)C(=O)N[C@@H](CC(N)=O)C(=O)N[C@@H]([C@@H](C)O)C(=O)N[C@@H](C)C(=O)N[C@@H]([C@@H](C)O)C(=O)N1)[C@@H](C)O)C(=O)N1CCC[C@H]1C(=O)N[C@@H](CO)C(=O)N[C@@H](CO)C(=O)N[C@H](C(=O)N[C@@H](CC(N)=O)C(=O)N[C@H](C(=O)NCC(=O)N[C@@H](CO)C(=O)N[C@@H](Cc1c[nH]cn1)C(=O)N[C@H](C(=O)N[C@@H](Cc1ccc(O)cc1)C(N)=O)[C@@H](C)O)C(C)C)[C@@H](C)O [Example 45] (H-K([AEEA-γGlu-C20 diacid])RCNTATCATQRLANFLRHSSPNFGAIPSSTNVGSHTY-NH2; disulfide 3-8 (inferred))
